These results are taken from patent publication US5621133A (priority 1995, dated 1997).

Structures can show the parent of a compound that is named as a salt. A value given as a limit tells only on which side of the number the result lay.

For experiment [1], the system named is dopamine D-1 receptor. Particulars: for Intrinsic Activity (adenylate cyclase assay): dopamine = 100, goldfish retina or rat striatum; for EC50: read-out: EC50 (agonist activity in adenylate cyclase assay), tissue from goldfish retina or rat striatum.
Procedure: In order to determine agonist activity, cell-free tissue homogenates are incubated in an ionic buffer solution containing ATP and the compound being evaluated. The tissue was obtained from either goldfish retina or rat striatum.
The target of experiment [2] is dopamine D-1 receptor (Rattus norvegicus, UniProt P18901). The experiment is described as follows: biochemical. As to conditions: D-1 Ki, rat caudate, [125I]SCH-23982.
Source text: The compounds compete with the radiolabeled ligand for occupancy of the receptors and the molar potency of each compound was quantified.
The Ki values are inversely proportional to the affinity of the compound for the receptor.
Experiment [3] deals with dopamine D-2 receptor (Rattus norvegicus, UniProt P61169). The experiment can be described thus: biochemical. As to conditions: rat caudate, [125I]-p-aminophenylethyl spiroperidol; read-out: D-2 Ki. The experiment is classed as binding. How it is done: Homogenized rat caudate was the source of the D-2 receptors. […] The molar affinity of the compound for the receptor binding site was calculated by the same method used for the D-1 receptor assay, assuming a competitive interaction between the compound and the radiolabeled ligand.
Sequence of dopamine D-2 receptor (P61169 whole entry): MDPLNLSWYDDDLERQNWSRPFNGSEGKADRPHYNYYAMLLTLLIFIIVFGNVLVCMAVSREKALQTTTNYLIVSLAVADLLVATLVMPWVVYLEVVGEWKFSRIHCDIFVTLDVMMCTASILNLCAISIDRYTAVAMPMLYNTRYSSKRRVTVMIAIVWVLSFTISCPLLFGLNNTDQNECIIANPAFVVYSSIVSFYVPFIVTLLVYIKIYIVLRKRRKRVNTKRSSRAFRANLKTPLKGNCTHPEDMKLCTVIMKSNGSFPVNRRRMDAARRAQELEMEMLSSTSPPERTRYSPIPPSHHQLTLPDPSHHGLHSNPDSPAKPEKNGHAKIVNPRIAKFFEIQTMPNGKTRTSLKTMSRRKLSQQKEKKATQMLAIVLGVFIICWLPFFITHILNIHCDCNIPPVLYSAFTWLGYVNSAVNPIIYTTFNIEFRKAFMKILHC

Sequence of dopamine D-1 receptor (Rattus norvegicus, UniProt P18901) (P18901 whole entry): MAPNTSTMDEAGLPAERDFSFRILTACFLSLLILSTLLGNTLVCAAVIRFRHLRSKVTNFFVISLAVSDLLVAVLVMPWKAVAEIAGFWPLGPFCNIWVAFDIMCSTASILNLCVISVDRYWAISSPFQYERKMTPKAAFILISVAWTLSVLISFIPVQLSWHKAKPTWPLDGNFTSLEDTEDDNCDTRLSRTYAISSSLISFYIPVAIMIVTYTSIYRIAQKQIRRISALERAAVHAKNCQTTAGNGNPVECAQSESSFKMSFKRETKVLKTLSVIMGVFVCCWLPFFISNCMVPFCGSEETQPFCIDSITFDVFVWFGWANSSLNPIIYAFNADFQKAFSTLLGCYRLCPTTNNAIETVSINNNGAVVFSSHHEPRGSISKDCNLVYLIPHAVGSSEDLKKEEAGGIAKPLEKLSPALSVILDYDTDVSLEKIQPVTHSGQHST

One may read the EC50 as the concentration that produces a half-maximal response. The Ki is a dissociation constant, usually derived from enzyme kinetics or from competition with a known ligand. Regarding `CCCC[C@H]1Cc2c(ccc(O)c2O)[C@@H](CNC)O1` (relative stereo) [Example 135], the “Intrinsic Activity (adenylate cyclase assay)” value (from here on “Intrinsic Activity”) in experiment [1] was 136. Moreover, the EC50 in experiment [1] was 7 nM. Moreover, the Ki in experiment [2] amounted to 180 nM; in experiment [3], 1600 nM.
As for `CNC[C@H]1O[C@@H](c2ccc(F)cc2)Cc2c1ccc(O)c2O` (relative stereo) [Example 136], in experiment [1], the “Intrinsic Activity” value is given as 133. Besides, the EC50 in experiment [1] amounted to 5 nM. Further, the Ki in experiment [2] was 100 nM; in experiment [3], 2500 nM.
Take `CNC[C@H]1O[C@@H](Cc2ccc(OC)cc2)Cc2c1ccc(O)c2O` (relative stereo) [Example 137]: in experiment [1], the “Intrinsic Activity” value came out at 93 and the EC50 came to 1000 nM. In experiment [2], this compound gave a Ki of 2900 nM. Moreover, in experiment [3], the Ki worked out at 550 nM.
`CNC[C@H]1O[C@@H](CC2CCCCC2)Cc2c1ccc(O)c2O` (relative stereo) [Example 140]: in experiment [1], the “Intrinsic Activity” value is on record as 113 and the EC50 is 8.4 nM. This compound came in with a Ki in experiment [2] of 60 nM. Moreover, in experiment [3], the Ki stood at 1500 nM.
Turning to `CNC[C@H]1C[C@@H](c2ccccc2)Cc2c1ccc(O)c2O` (relative stereo) [Example 150, [1,3-cis]5,6,Dihydroxy-1-(N-methyl)aminomethyl-3-phenyl-1,2,3,4-tetrahydro-naphthalene], the “Intrinsic Activity” value in experiment [1] was determined as 102. Moreover, in experiment [1], the EC50 came out at 6 nM. Also, the Ki amounted to 25 nM in experiment [2] and 12000 nM in experiment [3].
The matching figures for `NC[C@H]1Cc2c(ccc(O)c2O)[C@@H](CN)O1` (relative stereo) [Example 154, [1,3-cis]1,3-Bis(aminomethyl)-3,4-dihydro-5,6-dihydroxy-1H-2-benzopyran Dihydrochloride]: 95, 100 nM, 1400 nM and 17000 nM.
`NC[C@H]1O[C@@H](CO)Cc2c1ccc(O)c2O` (relative stereo) [Example 155, [1,3-cis]1-Aminomethyl-3,4-dihydro-5,6-dihydroxy-3-hydroxymethyl-1H-2-benzopyran Hydrochloride]: in experiment [1], the “Intrinsic Activity” value amounted to 95. Also, in experiment [1], the EC50 amounted to 150 nM. Besides, the Ki was determined as 2600 nM in experiment [2] and 8200 nM in experiment [3].
With `NC[C@H]1O[C@@H](CN2CCCC2)Cc2c1ccc(O)c2O` (relative stereo) [Example 156, [1,3-cis]1-Aminomethyl-3,4-dihydro-5,6-dihydroxy-3-pyrrolidinylmethyl-1H-2-benzopyran Dihydrochloride], the “Intrinsic Activity” value in experiment [1] turned out to be 127. The EC50 in experiment [1] came to 9500 nM. The Ki is 6300 nM in experiment [2] and 16000 nM in experiment [3].
The matching figures for `NC[C@H]1O[C@@H](CN2CCOCC2)Cc2c1ccc(O)c2O` (relative stereo) [Example 157]: 111, 520 nM, 1300 nM and 16000 nM.
Consider `NC[C@H]1O[C@@H](CN2CCCCC2)Cc2c1ccc(O)c2O` (relative stereo) [Example 158], for which, in experiment [1], the “Intrinsic Activity” value was determined as 100 and the EC50 is 330 nM. This compound also registered a Ki in experiment [2] of 2300 nM. In experiment [3], the Ki is 6000 nM.
`NCC[C@H]1Cc2c(ccc(O)c2O)[C@@H](CN)O1` (relative stereo) [Example 159]: the “Intrinsic Activity” value in experiment [1] is on record as 129. The EC50 in experiment [1] was 150 nM. Moreover, the Ki in experiment [2] worked out at 3100 nM; in experiment [3], 3700 nM.
For the compound `NC[C@H]1O[C@@H](CCO)Cc2c1ccc(O)c2O` (relative stereo) [Example 160], the “Intrinsic Activity” value in experiment [1] stood at 136. For the same compound, the EC50 in experiment [1] was 140 nM. The Ki in experiment [2] worked out at 1300 nM; in experiment [3] it was 1700 nM.
With `CC(=O)NC[C@H]1Cc2c(ccc(O)c2O)[C@@H](CN)O1` (relative stereo) [Example 161], in experiment [1], the “Intrinsic Activity” value was 58 and the EC50 is 450 nM. This compound also displayed a Ki in experiment [2] of 1300 nM. Moreover, in experiment [3], the Ki is 170 nM.
For `NC[C@H]1O[C@@H](CNC(=O)c2ccccc2)Cc2c1ccc(O)c2O` (relative stereo) [Example 164], the “Intrinsic Activity” value in experiment [1] is reported as 96. Besides, the half-maximal effective concentration (EC50) in experiment [1] was found to be 200 nM. For the same compound, the Ki in experiment [2] was determined as 3600 nM; in experiment [3] it was 250 nM.
On to `CC(C)(C)C(=O)NC[C@H]1Cc2c(ccc(O)c2O)[C@@H](CN)O1` (relative stereo) [Example 166], for which, in experiment [1], the “Intrinsic Activity” value was determined as 97. Also, the EC50 in experiment [1] was found to be 180 nM. Besides, the results for the Ki in experiment [2] and in experiment [3] were 4800 nM and 2400 nM, respectively.
`NC[C@H]1O[C@@H](CNC(=O)c2ccc(Br)cc2)Cc2c1ccc(O)c2O` (relative stereo) [Example 167]: the “Intrinsic Activity” value in experiment [1] is 125. In addition, the EC50 in experiment [1] turned out to be 120 nM. Further, the Ki was 310 nM in experiment [2] and 2.1 nM in experiment [3].
The matching figures for `NC[C@H]1O[C@@H](CNC(=O)c2ccco2)Cc2c1ccc(O)c2O` (relative stereo) [Example 168]: 103, 270 nM, 17000 nM and greater than 10000 nM.
Take `CCCC(=O)NC[C@@H]1Cc2c(ccc(O)c2O)[C@H](CN)O1` (relative stereo) [Example 169]: in experiment [1], the “Intrinsic Activity” value was determined as 150 and the EC50 worked out at 200 nM. This compound also returned a Ki in experiment [2] of 8000 nM. In addition, in experiment [3], the Ki is greater than 10000 nM.
The matching figures for `NC[C@H]1O[C@@H](CNC(=O)c2cccnc2)Cc2c1ccc(O)c2O` (relative stereo) [Example 170]: 151, 130 nM, 570 nM and 140 nM.
For the compound `CC(C)C(=O)NC[C@H]1Cc2c(ccc(O)c2O)[C@@H](CN)O1` (relative stereo) [Example 171], in experiment [1], the “Intrinsic Activity” value is 124 and the EC50 was 180 nM. Moreover, the affinity in experiment [2], expressed as Ki, was 530 nM. In addition, in experiment [3], the Ki stood at 810 nM.
Consider `CC(=O)NCC[C@H]1Cc2c(ccc(O)c2O)[C@@H](CN)O1` (relative stereo) [Example 172], for which, in experiment [1], the “Intrinsic Activity” value came to 116 and the EC50 was 220 nM. The compound further showed a Ki in experiment [2] of 1100 nM. In addition, the Ki in experiment [3] was greater than 10000 nM.
Take `CNC[C@H]1O[C@@H](CCN)Cc2c1ccc(O)c2O` (relative stereo) [Example 173]: in experiment [1], the “Intrinsic Activity” value is reported as 63 and the EC50 was determined as 390 nM. Also, the Ki in experiment [2] came to 3600 nM. Further, the Ki in experiment [3] was found to be 14000 nM.
Turning to `CNC[C@H]1O[C@@H](CCO)Cc2c1ccc(O)c2O` (relative stereo) [Example 174], in experiment [1], the “Intrinsic Activity” value was determined as 90 and the EC50 was 65 nM. Affinity in experiment [2] was put at a Ki of 1200 nM. Also, the Ki in experiment [3] was 3500 nM.
The matching figures for `NC[C@@H]1O[C@H](C2CCCCC2)CCc2c1ccc(O)c2O` (relative stereo) [Example 176, [1,3-cis]1-Aminomethyl-3-cyclohexyl-6,7-dihydroxy-1,3,4,5-tetrahydro-2-benzoxepin Hydrochloride]: 90, 320 nM, 650 nM and 2600 nM.
As to `Cc1cc2c(c(O)c1O)C[C@@H](C1CCCCC1)O[C@H]2CN` (relative stereo) [Example 177, [1,3-cis]1-Aminomethyl-3-cyclohexyl-3,4-dihydro-5,6-dihydroxy-7-methyl-1H-2-benzopyran Hydrochloride], in experiment [1], the “Intrinsic Activity” value was determined as 62 and the EC50 is 170 nM. In addition, the affinity in experiment [2], expressed as Ki, was 130 nM. In experiment [3], the Ki turned out to be 6600 nM.
As for `Oc1ccc2c(c1O)C[C@@H](c1ccccc1)C[C@H]2[C@H]1CCCN1` (relative stereo) [Example 180, [1,3-cis]5,6-Dihydroxy-3-phenyl-1-(2'-pyrrolidinyl)-1,2,3,4-tetrahydronaphthalene Hydrobromide], the “Intrinsic Activity” value in experiment [1] is on record as 71. Further, the EC50 in experiment [1] was 80 nM. The Ki in experiment [2] is 1100 nM; in experiment [3], 4700 nM.
Take `NC[C@@H]1S[C@H](c2ccccc2)Cc2c1ccc(O)c2O` (relative stereo) [Example 186, [1,3-cis]1-Aminomethyl-3-phenyl-3,4-dihydro-5,6-dihydroxy-1H-2-benzothiopyran Hydrochloride]: in experiment [1], the “Intrinsic Activity” value amounted to 95 and the EC50 stood at 1300 nM. Further, the inhibition constant (Ki) in experiment [2] stood at 1900 nM. In addition, the Ki in experiment [3] was found to be 34000 nM.
With `CNC[C@@H]1S[C@H](c2ccccc2)Cc2c1ccc(O)c2O` (relative stereo) [Example 187, [1,3-cis]1-(N-Methyl)aminomethyl-3-phenyl-3,4-dihydro-5,6-dihydroxy-1H-2-benzothiopyran Hydrochloride], in experiment [1], the “Intrinsic Activity” value amounted to 70. Besides, in experiment [1], the EC50 is 1200 nM. Further, the Ki in experiment [2] was 2500 nM; in experiment [3] it was 6400 nM.
Consider `CN(C)C[C@@H]1O[C@H](C2(c3ccccc3)CCCCC2)Cc2c1ccc(O)c2O` (relative stereo) [Example 229], for which, in experiment [1], the “Intrinsic Activity” value was determined as 34. For the same compound, in experiment [1], the EC50 is 330 nM. For the same compound, the figures for the Ki in experiment [2] and in experiment [3] were 260 nM and 3600 nM, respectively.
As for `CN(C)C[C@@H]1O[C@H](C2(C)CCCCC2)Cc2c1ccc(O)c2O` (relative stereo) [Example 230], in experiment [1], the “Intrinsic Activity” value is listed as 59 and the EC50 came out at 120 nM. In addition, the Ki in experiment [2] amounted to 26 nM. In experiment [3], the Ki was greater than 10000 nM.
